Results from PubChem BioAssay (NCI).
Values joined by “and” are separate entries in the source; they are usually repeats but may differ in a detail not shown here. Equal entries are not always repeated.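 Compound exposure: 48 hours, 5 concentrations, 96-well plates. Here, GI50 denotes the concentration required for 50% inhibition of growth. TGI: total growth inhibition.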

Assays:
Test in all cases: NCI tumour cell line growth inhibition, 48 h
HOP-62 NSCLC = test system: HOP-62 NSCLC
BT-549 breast = test system: BT-549 breast
ACHN renal = test system: ACHN renal
RPMI-8226 leukemia = test system: RPMI-8226 leukemia
786-0 renal = test system: 786-0 renal
NCI-H226 lung = test system: NCI-H226 lung
SK-MEL-2 melanoma = test system: SK-MEL-2 melanoma
A498 renal = test system: A498 renal
T-47D breast = test system: T-47D breast
KM20L2 colon = test system: KM20L2 colon
SNB-78 CNS = test system: SNB-78 CNS
DLD-1 colon = test system: DLD-1 colon

Structure (SMILES)	TGI (HOP-62 NSCLC)	TGI (BT-549 breast)	TGI (ACHN renal)	TGI (RPMI-8226 leukemia)	TGI (786-0 renal)	TGI (NCI-H226 lung)	TGI (SK-MEL-2 melanoma)	TGI (A498 renal)	TGI (T-47D breast)	GI50 (KM20L2 colon)	TGI (KM20L2 colon)	GI50 (SK-MEL-2 melanoma)	TGI (SNB-78 CNS)	TGI (DLD-1 colon)	GI50 (HOP-62 NSCLC)	GI50 (NCI-H226 lung)	GI50 (DLD-1 colon)	GI50 (ACHN renal)	GI50 (A498 renal)	GI50 (BT-549 breast)
COc1cc2c(cc1OC)-c1cc3cc(OC)c(OC)cc3c(C)[n+]1CC2 (tested in a mixture with another compound)	> 100 µM	> 100 µM	> 100 µM	> 100 µM	> 100 µM	> 100 µM	> 100 µM	> 100 µM	25.2 µM	–	–	–	–	–	–	–	–	–	–	–
COc1cccc2c1C(=O)c1c(O)c3c(c(O)c1C2=O)CC(O)(C(C)=O)CC3OC1OC(COC(C)=O)C(OC(C)=O)C(OC(C)=O)C1OC(C)=O (configuration not stated)	33.2 µM	–	87.6 µM	–	56.3 µM	–	> 100 µM	–	> 100 µM	–	–	–	–	–	–	–	–	–	–	–
Oc1ccccc1CNCc1ccccc1O	> 100 µM	> 100 µM	> 100 µM	> 100 µM	> 100 µM	> 100 µM	> 100 µM	> 100 µM	> 100 µM	–	–	–	–	–	–	–	–	–	–	–
O=C(N/N=C/c1cc(Cl)cc(Cl)c1[O-])c1ccccc1O.O=C(N/N=C/c1cc(Cl)cc(Cl)c1[O-])c1ccccc1O.[Cu+2]	0.901 µM	–	1.57 µM	–	–	–	2.1 µM	–	–	0.909 µM	2.28 µM	0.746 µM	–	–	–	–	–	–	–	–
O=C(N/N=C/c1cc(Cl)cc(Cl)c1[O-])c1ccccc1O.O=C(N/N=C/c1cc(Cl)cc(Cl)c1[O-])c1ccccc1O.[Fe+2]	44.4 µM	–	27.7 µM	–	–	33.5 µM	35.5 µM	–	–	14.1 µM	27.9 µM	14.9 µM	–	–	–	–	–	–	–	–
CCN(CC)CCCNC(=O)c1ccccc1Nc1c(Cl)cccc1Cl	24.2 µM	–	21.8 µM	20.5 µM	–	28.6 µM	–	–	–	–	5.58 µM	–	31.7 µM	23.8 µM	–	–	–	–	–	–
NCCNc1ccc(NCCN)c2c1C(=O)c1c(O)ccc(O)c1C2=O	0.147 µM and 0.0642 µM	2.18 µM	0.117 µM and 0.0596 µM	0.692 µM	0.0555 µM and 0.0497 µM	0.0439 µM and 0.0393 µM	1.31 µM and 1.33 µM	0.37 µM	2.66 µM and 4.38 µM	0.251 µM	1.5 µM and 1.53 µM	0.345 µM	–	1.05 µM and 0.974 µM	0.0189 µM	0.0102 µM	0.069 µM	–	–	–
Cn1cc(-c2csc(-c3cn(CCCN4CCCCC4)c4ccc(Br)cc34)n2)c2cccnc21	–	–	3 µM	–	–	4.84 µM	3.74 µM	14 µM	–	–	–	1.94 µM	–	–	–	2.07 µM	–	1.65 µM	3.69 µM	–
O=[N+]([O-])c1cc(C(F)(F)F)cc2c1SC1=Nc3ccccc3CN12	> 100 µM	–	–	> 100 µM	–	> 100 µM	> 100 µM	> 100 µM	–	–	> 100 µM	–	> 100 µM	> 100 µM	–	–	–	–	–	–
CC(=O)C(C(=O)C(=O)Nc1cc(Cl)c(Cl)cc1Cl)c1csc(N)n1 (configuration not stated)	> 100 µM	–	> 100 µM	> 100 µM	–	> 100 µM	> 100 µM	> 100 µM	–	–	> 100 µM	–	> 100 µM	> 100 µM	–	–	–	–	–	–
O=c1[nH]c(Br)nc2n[nH]nc12	94.8 µM	> 100 µM	> 100 µM	> 100 µM	> 100 µM	> 100 µM	> 100 µM	> 100 µM	> 100 µM	–	–	–	–	–	–	–	–	–	–	–
O=C(N/N=C/c1cc(Cl)cc(Cl)c1[OH2+])c1ccncc1.O=S(=O)([O-])[O-].[Fe+2]	34.9 µM	–	28.1 µM	5.98 µM	53.9 µM	41.9 µM	94.9 µM	–	–	–	36.3 µM	82.9 µM	–	–	–	–	–	–	–	–
C[N+]1(C)C/C(=C\C=C\c2ccccc2)C(=O)/C(=C/C=C/c2ccccc2)C1	46.3 µM	8.39 µM	> 100 µM	10.9 µM	55.3 µM	> 72.1 µM	64.2 µM	> 94.9 µM	47.4 µM	–	33.1 µM	–	> 100 µM	45.5 µM	–	–	–	–	–	–
Nc1n[nH]c(N)n1	3550 µM	> 10000 µM	> 10000 µM	> 10000 µM	> 10000 µM	> 10000 µM	> 10000 µM	> 10000 µM	> 10000 µM	–	> 10000 µM	–	> 8560 µM	> 10000 µM	–	–	–	–	–	–
CCCCCC1CC(C(C)=O)CN1c1ccc(F)cc1 (configuration not stated)	–	–	> 100 µM	–	–	–	> 100 µM	> 100 µM	–	–	> 100 µM	–	> 100 µM	> 100 µM	–	–	–	–	–	–
Oc1c(Cl)c(Cl)c(O)c(-c2cnc(-c3ncc(-c4c(O)c(Cl)c(Cl)c(O)c4Cl)s3)s2)c1Cl	> 100 µM	–	51.5 µM	–	53.2 µM	14 µM	54.1 µM	–	> 100 µM	–	–	–	–	–	–	–	–	–	–	–
CC(=O)OC1(C)CC(C)C(=O)C(C(O)CC2CC(=O)NC(=O)C2)C1 (configuration not stated)	0.0683 µM	–	0.131 µM and 0.107 µM	0.0162 µM	0.0669 µM	0.275 µM	0.806 µM and 0.438 µM	0.266 µM and 0.0863 µM	0.583 µM	–	–	–	–	–	–	0.0108 µM	–	–	–	0.0148 µM
